According to PMC5602538, “Assessment of the Drug Interaction Potential of Unconjugated and GalNAc3-Conjugated 2′-MOE-ASOs” (Molecular Therapy. Nucleic Acids, 2017):
pIC50: −log10 of the molar value. {GalNAc3} = trishexylamino-C6 triantennary GalNAc conjugate; e = 2'-O-(2-methoxyethyl) (MOE); d = 2'-deoxy (DNA)

Experiments:
CYP2C19 = CYP2C19 (Homo sapiens, UniProt P33261); details: hepatocytes
Procedure: Preincubations were performed in 50 μL of Williams’ Medium E with 2 mM salicylamide. The salicylamide was included to reduce possible phase II conjugation to the precursor phase I metabolites. […] Human hepatocytes (pooled from 5 donors) were thawed and prepared according to the vendor’s protocol. […] Incubations were carried out at 37°C with 5% CO2. The incubation time was 45 min for phenacetin, diclofenac, dextromethorphan, midazolam, bupropion, chlorzoxazone, and testosterone and 90 min for paclitaxel and (S)-mephenytoin. The reactions were stopped by adding 200 μL of ice-cold acetonitrile (can) with tolbutamide (100 ng/mL) as the internal standard to 100 μL of hepatocyte suspension (1:2, v/v). The 96-well plate was then vortexed at 1,700 rpm for 3 min and centrifuged at 3,500 rpm for 10 min at 20°C. The supernatants were analyzed using liquid chromatography-tandem MS (LC-MS/MS).

BSEP = system: T1, BSEP; experiment: BSEP inhibition study in Sf9 membrane vesicles; assay type: in vitro ADME; details: 100 μM ASO, 1 μM taurocholate
T1 construct: purchased Life Technologies; host or cells: Sf9 cells (membrane vesicles)
Procedure: The test system included a 96-well flat bottom plate containing a suspension of vesicles and a 96-well glass fiber filtration plate. Transport experiments were initiated with the addition of Mg-ATP (for ATP-dependent BSEP uptake) or AMP (non-ATP-dependent uptake) to appropriate wells. Preparation of the flat-bottom plates included incubation with blocking buffer for 60 min at 37°C with orbital shaking at 120 rpm. After 60 min, the blocking buffer was completely removed and assay uptake buffer solutions were added. For BSEP inhibition studies, solutions contained 1 μM [^3H]-taurocholic acid as a substrate and either assay vehicle, test article (at 100 μM), or reference inhibitor (300 μM rifampicin). For BSEP substrate studies, solutions contained either 1 μM [^3H]-taurocholic acid or 10 μM test article. […] These samples were counted using a 1450 Microbeta (Perkin-Elmer). […] The test article was quantitated by LC-MS.
Signal to noise for the BSEP probe substrate was calculated by dividing the uptake of the probe substrate in BSEP-expressing vesicles in the presence of ATP by the uptake of the BSEP substrate in the vesicles in the presence of AMP. Percent inhibition in the presence of the test article or the reference inhibitors was calculated as: %inhibition=100−(100×(ATP−dependent,transportor−mediatedaccumulation)withinhibitor/(ATP−dependent,transportor−mediatedaccumulation)withoutinhibitor).

CYP3A4 mRNA = CYP3A4 mRNA induction in plated human hepatocytes; details: ASO 100 μM, human hepatocytes 72 hr, vs PBS 1% vehicle, mean ± SD of triplicate
Procedure: Upon receipt, sandwich-cultured cryopreserved human hepatocytes (with Matrigel) plated on collagen-coated 24-well plates were inspected under a microscope for general morphology and viability. Fresh culture medium (OptiCulture Hepatocyte Media) was added to each plate that passed the visual inspection. The plates were then placed in an incubator set to 37°C with 5% carbon dioxide (CO2) for overnight acclimation. […] During this time, cells in parallel wells were also treated with 50.0 μM omeprazole (inducer of CYP1A2), 1,000 μM phenobarbital (inducer of CYP2B6), or 10.0 μM rifampicin (inducer of CYP3A4) in triplicate, respectively.
After collection of the supernatant for catalytic analysis, the remaining cells were washed and lysed with QIAGEN Buffer RLT from the QIAGEN RNeasy Kit. […]
The activity of each CYP enzyme was measured by comparing the peak area ratio of the corresponding product to the peak area ratio of the internal standard. The fold induction was calculated by dividing the peak area ratio of each individual well from the treatment group by the mean of the peak area ratios obtained from the vehicle control wells. […] The ΔCƬ was calculated as follows: ΔCƬ = CƬ (CYP) − CƬ (GAPDH). […] The ΔΔCƬ was calculated as follows: ΔΔCƬ = Δ CƬ (Treatment) − Δ CƬ (Vehicle). The fold induction of the target CYP was calculated using the following equation: Fold=2^-ΔΔCT.

OATP1B3 = system: T2, OATP1B3; experiment: OATP1B3 inhibition study in MDCK cells; assay type: in vitro ADME; details: 100 μM ASO, 2 μM CCK-8
T2 construct: expressed in transfected cells; host or cells: MDCK-II
Procedure: A 96-well cell culture plate containing a monolayer of MDCK-II cells grown on a permeable support and a corresponding receiver tray was used. The basolateral compartment of the culture plate and wells were washed with warm HBSS three times, with wells of the culture plate serving as the apical compartment. The wash was aspirated by adding 150 μL of 37°C HBSS to both compartments. Plates were incubated at 37°C with orbital shaking at 60 rpm for 15 min for OAT1, OAT3, OCT1, OCT2, OATP1B1, and OATP1B3 (±5 min). The pre-incubation buffer from both compartments was aspirated and 150 μL of the following was added to the basal compartment. […] Samples containing probe substrate were added to 200 μL of scintillation fluid and counted on a 1450 Microbeta (PerkinElmer), whereas samples containing the test article were kept frozen. Test article concentrations, including control samples, were evaluated by an LC-MS method.
Signal to noise for probe substrates was calculated by dividing the uptake of the probe substrate in transporter-expressing cells by the uptake of probe substrate in control cells not expressing the transporter of interest. […]

Sequence of CYP2C19 (P33261 whole entry): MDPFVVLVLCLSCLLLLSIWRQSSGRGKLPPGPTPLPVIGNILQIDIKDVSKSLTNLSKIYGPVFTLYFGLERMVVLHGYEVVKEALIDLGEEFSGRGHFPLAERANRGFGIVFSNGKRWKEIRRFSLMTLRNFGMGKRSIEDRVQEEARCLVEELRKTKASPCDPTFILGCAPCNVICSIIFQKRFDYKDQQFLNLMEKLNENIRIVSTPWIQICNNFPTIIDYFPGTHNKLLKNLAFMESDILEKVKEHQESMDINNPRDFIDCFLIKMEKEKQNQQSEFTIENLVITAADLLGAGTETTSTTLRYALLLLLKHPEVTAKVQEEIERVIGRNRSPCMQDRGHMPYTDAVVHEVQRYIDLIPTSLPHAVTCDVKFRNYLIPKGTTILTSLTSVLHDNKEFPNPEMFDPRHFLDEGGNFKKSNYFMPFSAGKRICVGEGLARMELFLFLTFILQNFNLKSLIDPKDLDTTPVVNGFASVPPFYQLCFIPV

Row | Substance | pIC50 (CYP2C19) | Enhancement of probe substrate uptake, BSEP (BSEP) [%] | Fold induction of CYP3A4 mRNA (CYP3A4 mRNA) [fold] | Enhancement of probe substrate uptake, OATP1B3 (OATP1B3) [%]
1 | ISIS 304801: 20-mer (5-10-5) 2′-MOE gapmer PS backbone antisense inhibitor of apoC-III, sequence AGCTTCTTGTCCAGCTTTAT (sugars from the 5' end e5 d10 e5, all phosphorothioate, methylation of C not given here) | < 4.00 | 21.0 | – | –
2 | ISIS 681257: 20-mer 2′-MOE gapmer PS/PO mixed backbone ASO conjugated to 5′-trishexylamino GalNAc3, targets Lp(a), sequence TGCTCCGTTGGTGCTTGTTC (5' {GalNAc3}, sugars by position and backbone not given here; 2'-MOE gapmer with mixed PS/PO backbone) | – | – | 0.213 ± 0.0471 | 38.3
3 | ISIS 420915: 20-mer 2′-MOE gapmer PS backbone antisense inhibitor of transthyretin, sequence TCTTGGTTACATGAAATCCC (all phosphorothioate, sugars by position and methylation of C not given here; 2'-MOE gapmer) | < 4.00 | – | – | –
